# Results published in patent publication US20250152585A1, “PHARMACEUTICAL COMPOUND” (Duke Street Bio Limited, priority 2022, published 2025).
# Where two headings read alike, the source gives them in different places.
# What was measured:
# [1] = target: T1, N-terminally FLAG-tagged PARP2 (amino acids 1-583) (Homo sapiens, UniProt Q9UGN5); assay: PARP2 probe displacement HTRF assay; type: binding; details: binned Kd
# T1 construct: N-terminally FLAG-tagged PARP2 (amino acids 1-583)
# Description: Data analysis was performed identical as for PARP1.
# [2] = target: T2, full length N-terminally FLAG-tagged PARP1 (Homo sapiens, UniProt P09874); assay: PARP1 probe displacement HTRF assay; details: for Selectivity: PARP1 over PARP2, ratio Kd (PARP2)/Kd (PARP1), probe displacement HTRF; for Kd: binned Kd, PARP1 probe displacement HTRF
# T2 sequence (P09874 whole entry): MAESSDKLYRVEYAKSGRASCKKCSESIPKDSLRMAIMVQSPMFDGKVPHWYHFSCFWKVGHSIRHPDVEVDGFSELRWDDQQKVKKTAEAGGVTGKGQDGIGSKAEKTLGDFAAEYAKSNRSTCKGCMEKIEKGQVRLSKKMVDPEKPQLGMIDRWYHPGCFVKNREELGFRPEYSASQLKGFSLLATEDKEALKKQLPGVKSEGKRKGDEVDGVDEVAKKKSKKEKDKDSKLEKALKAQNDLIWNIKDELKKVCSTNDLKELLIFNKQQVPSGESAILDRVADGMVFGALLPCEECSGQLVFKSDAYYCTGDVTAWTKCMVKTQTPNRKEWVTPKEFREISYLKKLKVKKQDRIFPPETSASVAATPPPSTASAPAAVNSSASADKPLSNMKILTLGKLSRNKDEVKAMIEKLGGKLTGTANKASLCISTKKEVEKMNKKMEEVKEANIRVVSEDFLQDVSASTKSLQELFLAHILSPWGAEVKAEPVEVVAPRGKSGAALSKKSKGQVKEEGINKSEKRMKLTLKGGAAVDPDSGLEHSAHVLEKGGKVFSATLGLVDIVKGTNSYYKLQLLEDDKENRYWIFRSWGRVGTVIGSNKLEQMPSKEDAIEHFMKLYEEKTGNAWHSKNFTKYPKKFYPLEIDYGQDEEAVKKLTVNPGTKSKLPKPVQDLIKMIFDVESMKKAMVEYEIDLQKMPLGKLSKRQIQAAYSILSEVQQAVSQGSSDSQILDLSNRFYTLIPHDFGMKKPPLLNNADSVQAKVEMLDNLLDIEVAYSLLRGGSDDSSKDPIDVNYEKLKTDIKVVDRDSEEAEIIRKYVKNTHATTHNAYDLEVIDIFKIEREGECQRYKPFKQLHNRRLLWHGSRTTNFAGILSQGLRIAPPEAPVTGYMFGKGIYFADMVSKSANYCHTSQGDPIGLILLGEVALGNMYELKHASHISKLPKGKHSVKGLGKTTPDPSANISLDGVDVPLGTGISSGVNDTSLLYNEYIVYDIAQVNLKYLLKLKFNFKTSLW
# [3] = target: T2, full length N-terminally FLAG-tagged PARP1; assay: PARP1 biochemical DELFIA assay (auto-PARylation); design: recombinant full length human N-terminally FLAG-tagged PARP1; details: binned IC50, PARP1 biochemical DELFIA assay
# T1 sequence (Q9UGN5 whole entry, the tested form may be a part): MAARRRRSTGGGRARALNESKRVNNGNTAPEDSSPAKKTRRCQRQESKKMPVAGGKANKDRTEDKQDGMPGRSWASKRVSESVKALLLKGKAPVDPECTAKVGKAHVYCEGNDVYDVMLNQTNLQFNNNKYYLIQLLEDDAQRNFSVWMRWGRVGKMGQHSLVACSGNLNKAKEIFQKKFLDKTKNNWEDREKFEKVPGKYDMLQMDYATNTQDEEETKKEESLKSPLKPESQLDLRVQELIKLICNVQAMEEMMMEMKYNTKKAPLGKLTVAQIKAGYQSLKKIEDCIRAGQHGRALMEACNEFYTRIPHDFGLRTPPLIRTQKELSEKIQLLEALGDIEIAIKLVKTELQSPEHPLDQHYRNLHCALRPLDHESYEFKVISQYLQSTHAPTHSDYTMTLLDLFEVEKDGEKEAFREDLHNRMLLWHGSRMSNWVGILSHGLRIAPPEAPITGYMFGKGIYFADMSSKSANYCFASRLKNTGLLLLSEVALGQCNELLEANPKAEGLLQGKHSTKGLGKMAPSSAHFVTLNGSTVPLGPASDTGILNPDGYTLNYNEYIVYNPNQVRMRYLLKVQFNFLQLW
SMILES,Kd ([1]; PARP2 probe displacement HTRF) [nM],Kd ([2]; read-out: PARP1 HTRF) [nM],IC50 [3] [nM],Kd ([1]; probe displacement HTRF) [nM],Kd ([2]; PARP1 HTRF) [nM],Selectivity [2]
"O=c1[nH]c(C2CCCN(C3CCC(F)(F)CC3)C2)nc2ccccc12 (single isomer, unassigned) [Compound 3a]",–,–,100 to 1000,–,–,–
"O=c1[nH]c(C2CCCN(C3CCC(F)(F)CC3)C2)nc2ccccc12 (single isomer, unassigned) [Compound 3b]",–,–,100 to 1000,–,–,–
"O=c1[nH]c(C2CCN(C3CCN(c4ccc(-c5ncc[nH]5)cc4)CC3)C2)nc2ccccc12 (single isomer, unassigned) [Compound 76a]",100 to 1000,10 to 100,–,–,–,− (− indicates a value of less than 10)
"O=c1[nH]c(C2CCN(C3CCN(c4ccc(-c5ncc[nH]5)cc4)CC3)C2)nc2ccccc12 (single isomer, unassigned) [Compound 76b]",< 10,10 to 100,–,–,–,− (− indicates a value of less than 10)
"CNC(=O)c1ccc(N2CCC(N3CCC(c4nc5cccnc5c(=O)[nH]4)C3)CC2)cn1 (single isomer, unassigned) [Compound 77a]",> 10000,100 to 1000,–,–,–,+ (+ indicates a value of 10 to less than 50)
"CNC(=O)c1ccc(N2CCC(N3CCC(c4nc5ccccc5c(=O)[nH]4)C3)CC2)cc1 (single isomer, unassigned) [Compound 80b]",100 to 1000,100 to 1000,–,–,–,− (− indicates a value of less than 10)
"CNC(=O)c1ccc(N2CCC(N3CCC(c4nc5ccncc5c(=O)[nH]4)C3)CC2)cn1 (single isomer, unassigned) [Compound 81b]",> 10000,10 to 100,–,–,–,+++ (+++ indicate a value of at least 100)
"CNC(=O)c1ccc(N2CCC(N3CCCC(c4nc5ccccc5c(=O)[nH]4)C3)CC2)cc1 (single isomer, unassigned) [Compound 82a]",100 to 1000,10 to 100,–,–,–,− (− indicates a value of less than 10)
"CNC(=O)c1ccc(N2CCC(N3CCC(c4nc5cnccc5c(=O)[nH]4)C3)CC2)cn1 (single isomer, unassigned) [Compound 84a]",> 10000,1000 to 10000,–,–,–,− (− indicates a value of less than 10)
"CNC(=O)c1ccc(N2CCC(N3CCC(c4nc5cc(Cl)ccc5c(=O)[nH]4)C3)CC2)cn1 (single isomer, unassigned) [Compound 87a]",1000 to 10000,100 to 1000,–,–,–,+ (+ indicates a value of 10 to less than 50)
"CNC(=O)c1ccc(N2CCC(N3CCC(c4nc5cc(Cl)ccc5c(=O)[nH]4)C3)CC2)cn1 (single isomer, unassigned) [Compound 87b]",1000 to 10000,< 10,–,–,–,+++ (+++ indicate a value of at least 100)
"CNC(=O)c1ccc(N2CCC(N3CCCC(c4nc5cccnc5c(=O)[nH]4)C3)CC2)cn1 (single isomer, unassigned) [Compound 89a]",> 10000,> 10000,–,–,–,− (− indicates a value of less than 10)
"CNC(=O)c1ccc(N2CCC(N3CCCC(c4nc5cccnc5c(=O)[nH]4)C3)CC2)cn1 (single isomer, unassigned) [Compound 89b]",> 10000,100 to 1000,–,–,–,+ (+ indicates a value of 10 to less than 50)
"CNC(=O)c1ccc(N2CCC(N3CCC4CC4(c4nc5ccccc5c(=O)[nH]4)C3)CC2)cn1 (single isomer, unassigned) [Compound 90b]",1000 to 10000,100 to 1000,–,–,–,+ (+ indicates a value of 10 to less than 50)
"CNC(=O)c1ccc(N2CCC(N3CCC(c4nc5c(C(F)(F)F)cccc5c(=O)[nH]4)C3)CC2)cn1 (single isomer, unassigned) [Compound 178b]",1000 to 10000,< 10,–,–,–,+++ (+++ indicate a value of at least 100)
"CNC(=O)c1ccc(N2CCC(N3CCC(c4cc5c(F)cncc5c(=O)[nH]4)C3)CC2)c(F)n1 (single isomer, unassigned) [Compound 343b, 6-fluoro-5-(4-(3-(5-fluoro-1-oxo-1,2-dihydro-2,7-naphthyridin-3-yl)pyrrolidin-1-yl)piperidin-1-yl)-N-methylpicolinamide]",–,–,–,1000 to 10000,–,–
CCN1CCCc2c1nc(C13CC(C1)N(C1CCN(c4ccc(C(=O)NC)nc4)CC1)C3)[nH]c2=O [Compound 383],–,–,–,100 to 1000,–,–

# Further lines, with some results ahead:
Kd ([1]; PARP2 probe displacement HTRF) [nM],Kd ([2]; read-out: PARP1 HTRF) [nM],IC50 [3] [nM],Kd ([1]; probe displacement HTRF) [nM],Kd ([2]; PARP1 HTRF) [nM],SMILES,Selectivity [2]
> 10000,100 to 1000,–,–,–,CNC(=O)c1ccc(N2CCC(N3CCC(c4nc5onc(C(F)(F)F)c5c(=O)[nH]4)C3)CC2)cn1 (racemic) [Compound 176rac],+ (+ indicates a value of 10 to less than 50)
> 10000,< 10,–,–,–,CNC(=O)c1ccc(N2CCC(N3CCC(c4cc5ccc(C(F)(F)F)cc5c(=O)[nH]4)C3)CC2)cn1 (racemic) [Compound 177rac],+++ (+++ indicate a value of at least 100)
–,–,100 to 1000,–,–,"O=c1[nH]c(C2CCN(C3CCC(F)(F)CC3)C2)nc2ccccc12 (single isomer, unassigned) [Compound 4b]",–
–,–,100 to 1000,–,–,"CNC(=O)c1ccc(OCCCN2CCCC(c3nc4ccccc4c(=O)[nH]3)C2)cn1 (single isomer, unassigned) [Compound 7b]",–
> 10000,10 to 100,–,–,–,"CNC(=O)c1ccc(N2CCC(N3CCC(c4nc5cccnc5c(=O)[nH]4)C3)CC2)cn1 (single isomer, unassigned) [Compound 77b]",+++ (+++ indicate a value of at least 100)
1000 to 10000,< 10,–,–,–,"CNC(=O)c1ccc(N2CCC(N3CCCC(c4nc5ccc(F)cc5c(=O)[nH]4)C3)CC2)cn1 (single isomer, unassigned) [Compound 78a]",+++ (+++ indicate a value of at least 100)
100 to 1000,10 to 100,–,–,–,"CNC(=O)c1ccc(N2CCC(N3CCCC(c4nc5ccc(F)cc5c(=O)[nH]4)C3)CC2)cn1 (single isomer, unassigned) [Compound 78b]",+ (+ indicates a value of 10 to less than 50)
100 to 1000,10 to 100,–,–,–,"N#Cc1ccc(N2CCC(N3CCCC(c4nc5ccccc5c(=O)[nH]4)C3)CC2)cc1 (single isomer, unassigned) [Compound 79a]",+ (+ indicates a value of 10 to less than 50)
100 to 1000,10 to 100,–,–,–,"N#Cc1ccc(N2CCC(N3CCCC(c4nc5ccccc5c(=O)[nH]4)C3)CC2)cc1 (single isomer, unassigned) [Compound 79b]",+ (+ indicates a value of 10 to less than 50)
100 to 1000,< 10,–,–,–,"CNC(=O)c1ccc(N2CCC(N3CCC(c4nc5ccccc5c(=O)[nH]4)C3)CC2)cc1 (single isomer, unassigned) [Compound 80a]",+++ (+++ indicate a value of at least 100)
> 10000,100 to 1000,–,–,–,"CNC(=O)c1ccc(N2CCC(N3CCC(c4nc5ccncc5c(=O)[nH]4)C3)CC2)cn1 (single isomer, unassigned) [Compound 81a]",+ (+ indicates a value of 10 to less than 50)
> 10000,10 to 100,–,–,–,"CNC(=O)c1ccc(N2CCC(N3CCCC(c4nc5ccccc5c(=O)[nH]4)C3)CC2)cc1 (single isomer, unassigned) [Compound 82b]",++ (++ indicates a value of 50 to less than 100)
1000 to 10000,100 to 1000,–,–,–,"CNC(=O)c1ccc(N2CCC(N3CCCC(c4nc5ccccc5c(=O)[nH]4)C3)CC2)nc1 (single isomer, unassigned) [Compound 83a]",− (− indicates a value of less than 10)
> 10000,100 to 1000,–,–,–,"CNC(=O)c1ccc(N2CCC(N3CCCC(c4nc5ccccc5c(=O)[nH]4)C3)CC2)nc1 (single isomer, unassigned) [Compound 83b]",+ (+ indicates a value of 10 to less than 50)
> 10000,10 to 100,–,–,–,"CNC(=O)c1ccc(N2CCC(N3CCC(c4nc5cnccc5c(=O)[nH]4)C3)CC2)cn1 (single isomer, unassigned) [Compound 84b]",++ (++ indicates a value of 50 to less than 100)
100 to 1000,10 to 100,–,–,–,"CNC(=O)c1ccc(N2CCC(N3CCC(c4nc5cccc(Cl)c5c(=O)[nH]4)C3)CC2)cn1 (single isomer, unassigned) [Compound 85a]",+ (+ indicates a value of 10 to less than 50)
100 to 1000,100 to 1000,–,–,–,"CNC(=O)c1ccc(N2CCC(N3CCCC(c4nc5cccc(F)c5c(=O)[nH]4)C3)CC2)cn1 (single isomer, unassigned) [Compound 88a]",− (− indicates a value of less than 10)
1000 to 10000,< 10,–,–,–,"CNC(=O)c1ccc(N2CCC(N3CCCC(c4nc5cccc(F)c5c(=O)[nH]4)C3)CC2)cn1 (single isomer, unassigned) [Compound 88b]",+++ (+++ indicate a value of at least 100)
> 10000,100 to 1000,–,–,–,"CNC(=O)c1ccc(N2CCC(N3CCC4CC4(c4nc5ccccc5c(=O)[nH]4)C3)CC2)cn1 (single isomer, unassigned) [Compound 90a]",+ (+ indicates a value of 10 to less than 50)
1000 to 10000,100 to 1000,–,–,–,"CNC(=O)c1ccc(N2CCC(N3CCC(c4nc5c(C(F)(F)F)cccc5c(=O)[nH]4)C3)CC2)cn1 (single isomer, unassigned) [Compound 178a]",− (− indicates a value of less than 10)
> 10000,–,–,–,1000 to 10000,CNC(=O)c1ccc(N2CCC(CN3CCC(c4ncc(C(F)(F)F)c(=O)[nH]4)CC3)CC2)cn1 [Compound 75],− (− indicates a value of less than 10)
